Source: ChEMBL document CHEMBL2401713, “Discovery of bufadienolides as a novel class of ClC-3 chloride channel activators with antitumor activities” (J Med Chem, 2013)
Active and inactive are the calls of the source. The calls are words filed in the database; no cut-off is given here.

Experiments:
CCRF S-180 = assay: Cytotoxicity against mouse S180 cells expressing mutated alpha-1 Na+/K+-ATPase assessed as growth inhibition after 48 hrs by MTT assay; type: functional, cell-based; settings: CCRF S-180, 48 h
[1] = Cell cycle arrest in human CNE2Z cells assessed as accumulation at sub-G1 phase at 5 uM after 24 hrs by propidium iodide staining-based flow cytometric analysis in presence of ClC-3 siRNA (reference value: 1.3%); type: functional
[2] = Cell cycle arrest in human CNE2Z cells assessed as accumulation at sub-G1 phase at 5 uM after 24 hrs by propidium iodide staining-based flow cytometric analysis in presence of tamoxifen (reference value: 1.5%); type: functional
HepG2 [3] = assay: Cytotoxicity against human HepG2 cells assessed as growth inhibition after 48 hrs by MTT assay; type: functional, cell-based; settings: HepG2, 48 h
[4] = Cell cycle arrest in human CNE2Z cells assessed as accumulation at sub-G1 phase at 50 uM after 24 hrs by propidium iodide staining-based flow cytometric analysis (reference value: 1.1%); type: functional
[5] = Cytotoxicity against human CNE1 cells assessed as growth inhibition after 48 hrs by MTT assay; type: functional, cell-based; settings: CNE
CNE2Z [6] = assay: Induction of apoptosis in human CNE2Z cells assessed as increase in apoptotic cell level at 1 to 10 uM after 24 hrs by annexin V-FITC/propidium iodide staining-based flow cytometric analysis; type: functional
[7] = Cell cycle arrest in human CNE2Z cells assessed as accumulation at sub-G1 phase at 1 uM after 24 hrs by propidium iodide staining-based flow cytometric analysis in presence of ClC-3 siRNA (reference value: 1.3%); type: functional
[8] = Cell cycle arrest in human CNE2Z cells assessed as accumulation at sub-G1 phase at 5 uM after 24 hrs by propidium iodide staining-based flow cytometric analysis (reference value: 1.1%); type: functional
CNE2Z [9] = assay: Induction of apoptosis in human CNE2Z cells assessed as activation of caspase-8 at 1 to 50 uM after 24 hrs by luminometric analysis; type: functional, cell-based
HepG2 [10] = assay: Cytotoxicity against adriamycin-resistant human HepG2 cells assessed as growth inhibition after 48 hrs by MTT assay; type: functional, cell-based; settings: HepG2, 48 h
[11] = Upregulation of ClC-3 protein expression in human CNE2Z cells after 24 hrs by Western blot analysis; type: functional, cell-based
[12] = Cell cycle arrest in human CNE2Z cells assessed as accumulation at sub-G1 phase at 1 uM after 24 hrs by propidium iodide staining-based flow cytometric analysis in presence of tamoxifen (reference value: 1.5%); type: functional
[13] = Cell cycle arrest in human CNE2Z cells assessed as accumulation at sub-G1 phase at 1 uM after 24 hrs by propidium iodide staining-based flow cytometric analysis (reference value: 1.1%); type: functional
[14] = target: T1, H(+)/Cl(-) exchange transporter 3 (Homo sapiens) (UniProt P51790); assay: Activation of ClC-3 in human CNE2Z cells assessed as increase in chloride current in outward and inward direction at +80mV holding potential at 1 uM by whole-cell patch clamp method; type: cell-based
T1 sequence (whole entry): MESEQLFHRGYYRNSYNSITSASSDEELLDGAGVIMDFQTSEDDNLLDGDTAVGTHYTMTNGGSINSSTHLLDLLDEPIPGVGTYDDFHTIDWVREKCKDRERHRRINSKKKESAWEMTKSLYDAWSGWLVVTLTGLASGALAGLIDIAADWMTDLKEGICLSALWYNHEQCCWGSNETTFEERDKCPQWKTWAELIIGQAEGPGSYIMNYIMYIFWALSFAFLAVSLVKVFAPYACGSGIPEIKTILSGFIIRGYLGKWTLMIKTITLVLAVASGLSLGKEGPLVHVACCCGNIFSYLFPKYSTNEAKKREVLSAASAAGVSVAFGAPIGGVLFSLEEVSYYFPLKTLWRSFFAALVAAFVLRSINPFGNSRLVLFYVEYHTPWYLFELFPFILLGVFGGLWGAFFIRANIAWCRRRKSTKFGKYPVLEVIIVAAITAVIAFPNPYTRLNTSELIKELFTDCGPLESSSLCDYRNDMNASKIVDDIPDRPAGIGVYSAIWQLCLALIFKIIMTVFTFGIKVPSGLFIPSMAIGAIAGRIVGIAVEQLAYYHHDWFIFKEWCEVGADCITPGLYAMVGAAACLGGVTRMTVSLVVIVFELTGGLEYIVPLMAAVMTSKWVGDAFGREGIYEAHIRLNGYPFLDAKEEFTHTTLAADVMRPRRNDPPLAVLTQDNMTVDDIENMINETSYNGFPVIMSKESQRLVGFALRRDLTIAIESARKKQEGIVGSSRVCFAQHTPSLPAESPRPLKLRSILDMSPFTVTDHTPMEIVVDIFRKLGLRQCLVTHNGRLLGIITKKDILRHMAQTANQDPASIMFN

[15] = Cell cycle arrest in human CNE2Z cells assessed as accumulation at sub-G1 phase at 50 uM after 24 hrs by propidium iodide staining-based flow cytometric analysis in presence of tamoxifen (reference value: 1.5%); type: functional
H22 = assay: Cytotoxicity against mouse H22 cells expressing mutated alpha-1 Na+/K+-ATPase assessed as growth inhibition after 48 hrs by MTT assay; type: functional, cell-based; settings: H22, 48 h
[16] = Cell cycle arrest in human CNE2Z cells assessed as accumulation at sub-G1 phase at 1 uM after 24 hrs by propidium iodide staining-based flow cytometric analysis in presence of NPPB (reference value: 2%); type: functional
[17] = Cell cycle arrest in human CNE2Z cells assessed as accumulation at sub-G1 phase at 5 uM after 24 hrs by propidium iodide staining-based flow cytometric analysis in presence of NPPB (reference value: 2%); type: functional
[18] = Cell cycle arrest in human CNE2Z cells assessed as accumulation at sub-G1 phase at 50 uM after 24 hrs by propidium iodide staining-based flow cytometric analysis in presence of ClC-3 siRNA (reference value: 1.3%); type: functional
[19] = target: T1, H(+)/Cl(-) exchange transporter 3 (Homo sapiens); assay: Activation of ClC-3 in human CNE2Z cells assessed as increase in chloride current density at +80mV holding potential at 1 uM by whole-cell patch clamp method relative to vehicle-treated control; type: cell-based
[20] = Cytotoxicity against human CNE2Z cells assessed as growth inhibition after 48 hrs by MTT assay; type: functional, cell-based
CNE2Z [21] = assay: Induction of apoptosis in human CNE2Z cells assessed as activation of caspase-3/7 at 1 to 50 uM after 24 hrs by luminometric analysis; type: functional, cell-based
[22] = Cell cycle arrest in human CNE2Z cells assessed as accumulation at sub-G1 phase at 50 uM after 24 hrs by propidium iodide staining-based flow cytometric analysis in presence of NPPB (reference value: 2%); type: functional
[23] = Cell cycle arrest in human CNE2Z cells assessed as accumulation at sub-G1 phase at 10 uM after 24 hrs by propidium iodide staining-based flow cytometric analysis in presence of NPPB (reference value: 2%); type: functional
CNE2Z [24] = assay: Induction of apoptosis in human CNE2Z cells assessed as activation of caspase-3 at 1 uM after 24 hrs by annexin V-FITC/propidium iodide staining-based flow cytometric analysis; type: functional, cell-based
[25] = Cell cycle arrest in human CNE2Z cells assessed as accumulation at sub-G1 phase at 10 uM after 24 hrs by propidium iodide staining-based flow cytometric analysis in presence of tamoxifen (reference value: 1.5%); type: functional
[26] = Cell cycle arrest in human CNE2Z cells assessed as accumulation at sub-G1 phase at 10 uM after 24 hrs by propidium iodide staining-based flow cytometric analysis in presence of ClC-3 siRNA (reference value: 1.3%); type: functional
CNE2Z [27] = assay: Induction of apoptosis in human CNE2Z cells assessed as induction of PARP cleavage at 1 uM after 24 hrs by annexin V-FITC/propidium iodide staining-based flow cytometric analysis in presence of tamoxifen, NPPB, ClC-3 siRNA; type: functional, cell-based
[28] = Cell cycle arrest in human CNE2Z cells assessed as accumulation at sub-G1 phase at 10 uM after 24 hrs by propidium iodide staining-based flow cytometric analysis (reference value: 1.1%); type: functional
CNE2Z [29] = assay: Induction of apoptosis in human CNE2Z cells assessed as induction of PARP cleavage at 1 uM after 24 hrs by annexin V-FITC/propidium iodide staining-based flow cytometric analysis; type: functional, cell-based
[30] = Cytotoxicity against SV40-transformed human NP69 cells assessed as cell viability after 48 hrs by MTT assay; type: cell-based; settings: NP69, 48 h
CNE2Z [31] = assay: Induction of apoptosis in human CNE2Z cells assessed as expression of caspase-3 at 1 uM after 24 hrs by annexin V-FITC/propidium iodide staining-based flow cytometric analysis in presence of tamoxifen, NPPB, ClC-3 siRNA; type: functional, cell-based
CNE2Z [32] = assay: Induction of apoptosis in human CNE2Z cells assessed as increase in apoptotic cell level at 1 to 10 uM after 24 hrs by annexin V-FITC/propidium iodide staining-based flow cytometric analysis in presence of tamoxifen, NPPB, ClC-3 siRNA; type: functional

Structure (SMILES) | IC50 (CCRF S-180) [µM] | IC50 (HepG2 [3]) [µM] | IC50 [5] [µM] | IC50 (HepG2 [10]) [µM] | IC50 (H22) [µM] | Activity [19] | IC50 [20] [µM] | other results
CC(=O)O[C@@H]1C[C@H](c2ccc(=O)oc2)[C@@]2(C)CC[C@H]3[C@@H](CC[C@@H]4C[C@@H](O)CC[C@@]43C)[C@@]12O | > 50 | > 100 | > 100 | > 100 | > 50 | inactive | > 100 | Activity [1]: 3.3%; Activity [2]: 3.5%; Activity [4]: 4%; Activity (CNE2Z [6]): inactive; Activity [7]: 3%; Activity [8]: 3.1%; Activity (CNE2Z [9]): inactive; Activity [11]: inactive; Activity [12]: 2.2%; Activity [13]: 1.3%; Activity [14]: inactive; Activity [15]: 3.9%; Activity [16]: 2.8%; Activity [17]: 3.5%; Activity [18]: 3.4%; Activity (CNE2Z [21]): inactive; Activity [22]: 3.8%
C[C@]12CC[C@H](O)C[C@H]1CC[C@@H]1[C@@H]2CC[C@]2(C)[C@@H](c3ccc(=O)oc3)CC[C@]12O [BUFALIN] | > 50 | 0.589 | 0.279 | 0.345 | > 50 |  | 0.46 | Activity [1]: 31.7%; Activity [2]: 36.9%; Activity [23]: 42.7%; Activity (CNE2Z [24]): Active; Activity (CNE2Z [6]): 35.2%; Activity [7]: 21.5%; Activity [8]: 50.5%; Activity [25]: 43.9%; Activity [11]: Dose-dependent effect; Activity [26]: 40.9%; Activity [12]: 26.5%; Activity [13]: 39.1%; Activity (CNE2Z [27]): inactive; Activity [16]: 23.1%; Activity [28]: 59.1%; Activity [17]: 33.9%; Activity (CNE2Z [29]): Active; IC50 [30]: > 25 µM; Activity (CNE2Z [31]): inactive; Activity (CNE2Z [32]): inactive
C[C@]12CC[C@H](O)C[C@H]1CC[C@@H]1[C@@H]2CC[C@]2(C)[C@@H](c3ccc(=O)oc3)[C@@H](O)C[C@]12O [DESACETYLBUFOTALIN] | > 50 | 3.58 | 4.89 | 2.6 | > 50 | Active | 1.77 | 
COC(=O)CCCCCCC(=O)O[C@H]1CC[C@@]2(C)[C@H](CC[C@@H]3[C@@H]2CC[C@]2(C)[C@@H](c4ccc(=O)oc4)CC[C@]32O)C1 | > 50 | 3.18 | 1.72 | 2.38 | > 50 | Active | 2.87 | 
C[C@]12CC[C@H]3[C@@H](CC[C@@H]4C[C@@H](O)CC[C@@]43C=O)[C@]13O[C@@H]3C[C@@H]2c1ccc(=O)oc1 | > 50 | > 100 | 15.2 | > 100 | > 50 |  | 26.5 | 
C[C@]12CC[C@H](OC(=O)CCCCCCC(=O)O)C[C@H]1CC[C@@H]1[C@@H]2CC[C@]2(C)[C@@H](c3ccc(=O)oc3)CC[C@]12O | > 50 | > 100 | 4.99 | > 100 | > 50 |  | 7.38 | 
CC(=O)O[C@H]1[C@H]2O[C@]23[C@@H]2CC[C@@H]4C[C@@H](O)CC[C@]4(C)[C@H]2CC[C@]3(C)[C@H]1c1ccc(=O)oc1 [CINOBUFAGIN] | > 50 | 2.35 | 0.31 | 1.71 | > 50 |  | 0.39 | 
